Columns and labels:
SHP2-E76K [1] = molecular target: T1, SHP2-E76K (Homo sapiens (Human), UniProt Q06124, E76K); assay: Time-dependent inhibition (preincubation) assay; type: biochemical; conditions: preincubation 1, 5, 10, 20, or 60 min with SHP2-E76K
Description: PTPs contain a highly nucleophilic cysteine that is essential for catalytic activity, but is susceptible to oxidation and covalent modifications which abrogate its nucleophilic function and phosphatase activity. Because the methylenebenzothiophenone moiety of our inhibitors could potentially act as a Michael acceptor and thus covalently bind to the catalytic cysteine, we tested whether the observed inhibition of SHP2 was dependent on the preincubation time of inhibitor and enzyme. An irreversible covalent inhibitor may show time-dependent inhibition, with increased potency at longer incubation times. Conversely, the potency of a non-covalent inhibitor is expected to be insensitive to the time it is incubated with the enzyme. To test for time-dependent inhibition, #01 (#01) at 10 different concentrations was preincubated with SHP2-E76K for 1, 5, 10, 20, or 60 min, before the DiFMUP substrate was added to the reaction mixture and initial rates were recorded (FIG. 2C).

SHP2cat [2] = molecular target: T2, SHP2cat (Homo sapiens (Human), UniProt Q06124); assay: Jump dilution inhibition assay; type: biochemical; conditions: 10× preincubation 10 min, 10× jump-dilution
Description: Finally, we performed a jump-dilution experiment to test for irreversible inhibition of SHP2. #01 was preincubated for 10 min with SHP2cat at 10× inhibitor and protein concentrations, compared to a regular dose-response experiment, followed by a 10×jump-dilution, incubation for an additional 10 min, and addition of the DiFMUP substrate.
#01 was tested for reversibility of inhibition in a jump-dilution experiment using SHP2cat. A regular dose-response experiment (no jump-dilution) was performed in parallel. Working solutions of #01 in DMSO included 10, 3, 1, 0.3, 0.1, 0.03, 0.01, 0 mM for the jump-dilution experiment, and 1, 0.3, 0.1, 0.03, 0.01, 0.003, 0.001, 0 mM for the regular dose-response experiment. […] The enzyme reaction was started by the addition of 5 μL of DiFMUP working solution (100 μM in 50 mM Bis-Tris pH 6.0, 50 mMNaCl, 0.5 mM EDTA, and 0.01% Tween® 20), and fluorescence intensity was measured in kinetic mode (every minute for 10 min) using a Tecan Spark® Multimode Microplate Reader as described above. […] The initial rates were determined from the linear progression curves of the SHP2cat reaction. […] IC50 values were calculated from the corrected initial rates by nonlinear regression using the program GraphPad Prism (GraphPad Software, Inc., San Diego, CA) version 9.

SHP2-E76K [3] = molecular target: T1, SHP2-E76K; assay: Michaelis-Menten kinetics and mode of inhibition; type: biochemical
Description: Using nonlinear regression, initial rates at various inhibitor and substrate concentrations were fitted to the Michaelis-Menten equations for competitive, noncompetitive, uncompetitive, and mixed inhibition. Fitting models were then compared using Akaike's Information Criterion (AIC), and inhibition mode probabilities were calculated from the differences between the corresponding second-order corrected AIC scores.
#02 was tested with SHP2-E76K using a similar assay format as described above. #02 or vehicle (DMSO) were spotted in triplicate into a black Greiner FLUOTRAC™ 200 384-well microplate (#781076, Greiner) using an Echo 555 Liquid Handler (Labcyte, Inc., San Jose, CA). SHP2-E76K working solution was prepared and dispensed as described above and incubated with inhibitor for 20 min at RT. DiFMUP working solutions at 5×final concentration were prepared in 50 mM Bis-Tris pH 6.0, 50 mMNaCl, and 0.01% Tween 20. […] Fluorescence intensity was measured in kinetic mode as described above. The initial rates were determined from the linear progression curves of each SHP2-E76K reaction. […] For a comparison of the fitting results, the second-order corrected Akaike's Information Criterion (AICc) was calculated using equation 1, where N is the number of data points, SS the absolute sum of squares, and K the number of parameters fit by nonlinear regression plus 1.

SHP2cat [4] = molecular target: T2, SHP2cat; assay: Mass spectrometry test for inhibitor:protein adducts; conditions: SHP2cat 5 μM, inhibitor 100 μM, 1, 5, 20, 60 min, trypsin proteolysis, MS
Description: Additionally, we used mass spectrometry to test whether inhibitor: protein adducts are formed. Specifically, we incubated SHP2cat (5 μM) with #02 (100 μM) in assay buffer for various times (1, 5, 20, and 60 min) before trypsin proteolysis and subsequent mass spectrometry analysis.

[5] = test system: TNBC cells (BT-549 and MDA-MB-468); assay: 11-day colony formation assay; type: cell-based; conditions: 5, 10, or 20 μM, 11 days
Description: Next, we performed an 11-day colony formation assay with TNBC cells treated with #02 or SHP099 at 5, 10, or 20 μM (FIG. 3D).
MDA-MB-468 and […] triple-negative breast cancer cells were maintained in DMEM+10% FBS supplemented with 1× Penicillin-Streptomycin/L-Glutamine (Omega Scientific). 1.5K cells (in […]) were seeded per well of a standard 24-well tissue culture plate (Falcon) and allowed to adhere for 24 h, before the addition of drug(s) as described. After a further 96 h, media was replaced with fresh media containing the same test compounds and concentrations. After 11 days, media was removed and cells stained with 0.5% Crystal Violet (in 20% methanol) for 20 min with agitation @ 80 rpm. Stain was removed and plates with stained cells were washed by being submerged in excess deionized water and allowed to air dry overnight before imaging.

T1 sequence (Q06124 whole entry E76K): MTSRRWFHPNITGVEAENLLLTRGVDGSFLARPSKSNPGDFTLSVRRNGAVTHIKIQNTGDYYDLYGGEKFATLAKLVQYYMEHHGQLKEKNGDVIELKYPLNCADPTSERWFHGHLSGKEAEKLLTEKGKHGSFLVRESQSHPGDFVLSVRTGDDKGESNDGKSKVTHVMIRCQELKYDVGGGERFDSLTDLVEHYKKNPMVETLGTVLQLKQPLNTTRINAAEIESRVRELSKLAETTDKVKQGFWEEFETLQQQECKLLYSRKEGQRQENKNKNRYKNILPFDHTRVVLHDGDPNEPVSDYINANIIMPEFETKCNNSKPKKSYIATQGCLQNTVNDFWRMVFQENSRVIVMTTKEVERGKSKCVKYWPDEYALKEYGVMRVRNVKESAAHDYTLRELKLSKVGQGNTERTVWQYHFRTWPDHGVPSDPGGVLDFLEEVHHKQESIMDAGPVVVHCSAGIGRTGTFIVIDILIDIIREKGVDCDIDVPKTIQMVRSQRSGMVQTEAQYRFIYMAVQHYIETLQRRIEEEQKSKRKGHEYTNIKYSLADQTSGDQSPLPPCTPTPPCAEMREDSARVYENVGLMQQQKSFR
T2 sequence (Q06124 248-527): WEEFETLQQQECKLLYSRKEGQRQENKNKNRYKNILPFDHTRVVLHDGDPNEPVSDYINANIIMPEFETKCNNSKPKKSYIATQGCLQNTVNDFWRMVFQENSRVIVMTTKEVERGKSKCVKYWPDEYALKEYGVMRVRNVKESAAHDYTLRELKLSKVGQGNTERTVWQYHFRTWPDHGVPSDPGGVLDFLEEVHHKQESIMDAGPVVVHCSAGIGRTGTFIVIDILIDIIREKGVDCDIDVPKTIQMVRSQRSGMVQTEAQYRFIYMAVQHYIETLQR

Compound	time dependence of inhibition (SHP2-E76K [1])	reversibility: jump-dilution vs regular dose-response IC50 curves (SHP2cat [2])	mode of inhibition (SHP2-E76K [3]; AIC model comparison)	Ki (SHP2-E76K [3]; DiFMUP substrate, read-out: inhibition constant (Ki) for noncompetitive inhibition) [nM]	inhibitor:protein adduct formation (SHP2cat [4])	effect on colony formation [5]
Nc1ccc(NC(=O)c2cc(-c3ccc(/C=C4\Sc5ccccc5C4=O)o3)ccc2O)cc1 [#01, (Z)—N-(4-Aminophenyl)-2-hydroxy-5-(5-((3-oxobenzo[b]thiophen-2(3H)-ylidene)methyl)furan-2-yl)benzamide]	not time-dependent	IC50 curves were practically identical	–	–	–	–
O=C(Nc1ccccc1)c1cc(-c2ccc(/C=C3\Sc4ccccc4C3=O)o2)ccc1O [#02, (Z)-2-hydroxy-5-(5-((3-oxobenzo[b]thiophen-2(3H)-ylidene)methyl)furan-2-yl)-N-phenylbenzamide]	–	–	noncompetitive or mixed inhibition mechanism	1800	no adduct formation with the inhibitor was found	colonies were undetectable

From patent publication US20250026741A1, “INHIBITORS OF THE ONCOGENIC SHP2 PHOSPHATASE AND USES THEREOF” (Sanford Burnham Prebys Medical Discovery Institute, priority 2021, published 2025)
